Experimental data taken from patent publication US11872219B2 (priority 2018, dated 2024).

How the values were obtained:
[1] = system: rats (monosodium-iodoacetate model of osteoarthritis); assay: monosodium-iodoacetate model of osteoarthritis: lameness (dynamic weight bearing); settings: for lameness (% RL-% RR), early and late phase: intrathecal, 1 hr post-drug, vs intrathecal saline
[2] = systemically administered, Hirao et al. 2008, cited from earlier work
[3] = system: rats (acute thermal nociception); assay: tail flick assay, intrathecal administration; type: in vivo, rat; settings: intrathecal 0.1, 1 or 10 μg on successive days, 1 hr post-drug, vs baseline and saline
Experimental: As a general matter, rats underwent implantation of a catheter for drug delivery into the lumbo-thoracic intrathecal space. A polyurethane catheter was inserted through an incision in the atlanto-occipital membrane and passed caudally to the lumbar level. The distal part of the catheter was exteriorized and connected to a Pinport access port (Instech). Each rat received a standard protocol of anesthesia and antibiotics. Patency checks of the catheter system were performed once weekly following surgeries using 0.02 mL of physiological saline continuing until completion of the dosing period. The Pinport was wiped with alcohol prior to any injection. A minimum of 9-10 days was allowed between surgery and the first dosing in order for the rats to recover fully from surgical trauma. Intrathecal injection of test items always involved the following procedure: test items were administered by slow bolus injection via the Pinport connected to the intrathecal catheter. The dose volume for each animal was fixed at 10 μL and injected slowly over duration of ˜5 minutes. Following dose administration, the catheter was flushed with 20 μL of physiological saline.
A Tail-Flick Analgesia Meter (Columbus Instruments) was used. […] Afterwards, baseline tail-flick latency was measured using a lamp intensity adjusted such that the baseline tail-flick latencies were in the 6-8 second range. […]

[4] = system: rats (monosodium-iodoacetate model of osteoarthritis); assay: monosodium-iodoacetate model of osteoarthritis: locomotor activity (total distance travelled)
[5] = biological target: human delta receptor (Homo sapiens, UniProt P41143); settings: Ferrari et al. 2017; cited from earlier work
Sequence of human delta receptor (P41143 whole entry): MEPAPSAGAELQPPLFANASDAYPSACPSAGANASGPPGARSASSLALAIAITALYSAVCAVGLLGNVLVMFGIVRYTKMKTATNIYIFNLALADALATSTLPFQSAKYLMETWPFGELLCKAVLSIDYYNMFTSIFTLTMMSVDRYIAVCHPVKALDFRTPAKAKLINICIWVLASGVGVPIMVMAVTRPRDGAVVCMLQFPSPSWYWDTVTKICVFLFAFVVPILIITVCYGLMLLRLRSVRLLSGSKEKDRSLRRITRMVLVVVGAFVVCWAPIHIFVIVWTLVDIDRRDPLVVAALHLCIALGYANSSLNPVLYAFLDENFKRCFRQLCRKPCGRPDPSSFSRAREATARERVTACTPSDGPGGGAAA

Compound: CN1CC[C@]23c4c5ccc(O)c4O[C@H]2[C@@H](O)C=C[C@H]3[C@H]1C5.O=S(=O)(O)O [morphine sulfate, reference compound]
- lameness, last two days of the late phase ([1]; intrathecal 15 μg, vs saline): statistical significance was not quite achieved
- lameness (% RL-% RR), early and late phase [1]: significantly reduced lameness levels

Compound: CC1(N2CCC(n3c([C@@H]4CCCNC4)nc4ccccc43)CC2)CCCCCCC1 [MCOPPB, 1-[1-(1-methylcyclooctyl)-4-piperidinyl]-2-[(3R)-3-piperidinyl]-1H-benzimidazole]
- anxiolytic effects [2]: potent anxiolytic effects
- inhibition of memory or motor function [2]: no inhibition of memory or motor function
- sedative side effects ([2]; appear only at much higher doses than the effective anxiolytic dose range): only slight sedative side effects
- lameness, early phase ([1]; intrathecal 1 μg, Days 2-4, vs saline): sufficient to reduce lameness significantly
- lameness, late phase, dose-response ([1]; intrathecal 0.1, 1 or 10 μg, Days 22-24): dose-related effects
- lameness, late phase, 1 and 10 μg ([1]; intrathecal 1 and 10 μg, Days 22-24, vs saline): significantly reduced lameness
- lameness (% RL-% RR), early and late phase [1]: significantly reduced lameness levels
- tail-flick latency [3]: significantly, and dose-dependently, increased TF latencies
- locomotor activity (total distance travelled), early phase ([4]; intrathecal 1 μg, vs intrathecal vehicle): did not change locomotor activity
- locomotor activity (total distance travelled), late phase ([4]; intrathecal 0.1, 1 or 10 μg, 0.1 and 10 μg reached statistical significance vs vehicle): appeared to restore locomotor activity to the level displayed by both treatment groups during the early phase
- activation of the human delta receptor [5]: only a small amount
